Results on 2 molecules are retold here after article PMC8508526 (Cancers, 2021).

Positions of bridges follow the written chain, without caps; N, C: chain ends. No end group written: not given here.

The conditions of data set [1]: freshly collected EDTA plasma from Sprague Dawley rats, 500 µL, spiked at 50 ng/mL, 2 h at 4 °C or room temperature, sampled every 30 min, HPLC-MS/MS, n = 2 per condition (method b35: 1 µM, 37 °C, human plasma).
The next data set concerns platelets. Briefly: Washed platelets flow cytometry analysis of activation (CD62P). It is filed as cell-based, mouse. The settings on record: washed platelets pooled from 4 treated ID8 tumor-bearing mice per group; resting and 3.33 U/mL thrombin; CD62P exposure. The method, then:
Washed platelets were freshly prepared as described elsewhere from a pool of 4 mouse blood samples by treatment group (ID8 allograft i.p. model). […] To promote activation, platelets were incubated with 3.33 U.mL^−1 thrombin (#D8537, Sigma-Aldrich) for 5 min, at room temperature. Platelets were probed with both a (FITC)-conjugated monoclonal anti-CD41 antibody (clone MWReg30; #553848, BD Pharmingen) and a (PE)-conjugated monoclonal anti-CD62P antibody (clone Wug.E9; #M130-2, Emfret Analytics) for 10 min, at room temperature, in the dark. IgG1-PE (clone R3-34; #P190_2, Emfret Analytics) and IgG1-FITC (clone R3-34; #553924, BD Pharmingen) were employed as isotype controls. Platelet isolation was performed by gating in forward and side scatter, as well as relying on CD41 positivity, while CD62P (P-selectin) membrane exposure reflects platelet activation.
Figure S2. […] 8 weeks old female and
(a) Photographs of spleen isolated on
Whitney U test statistical analyses (* p < 0.05).
mice having received chronic TAX2 or combination therapy. Upon sacrifice, blood was collected from
samples by treatment group.
investigated by flow cytometry. Platelet population was isolated based on anti‐CD41 positivity,
Activation was analyzed on […]
On the technique in general: A flow cytometer gives signals particle by particle.

Data set [2] deals with A2780 human ovarian carcinoma cells. The settings on record: A2780 model, 10 mg/kg i.p. thrice a week for 2 weeks. The method, then:
(§1) Suspensions of A2780 or SK-OV-3 human ovarian carcinoma cells were s.c. inoculated (5 × 10^6 cells in 200 µL per animal) into the left flank of BALB/c athymic nude mice. Tumor measurements (length, L; width, W) were performed twice a week, using a digital caliper, and total tumor volume was calculated according to V = 0.5 × L × W^2. For randomization, mice were allocated to groups (n = 13–16 in each) based on similar mean and distribution of tumor volume on day 13. […] Body weight (BW) was monitored every 2 to 3 days, while clinical signs and behavior pattern were daily checked until study termination. Loss of 15% BW or tumor volume exceeding 1 cm^3 were considered an indication for euthanasia, as well as severe tumor necrosis, as it was sometimes associated with loss of body fluid and/or infection.

For data set [3], the system named is SK-OV-3 human ovarian carcinoma cells. The settings on record: SK-OV-3 model, 10 mg/kg i.p. thrice a week for 7 weeks. The protocol:
as §1

The conditions of data set [4]: 0.25 to 20 mg/mL in MilliQ water, 0.9% NaCl or 0.9% NaCl with 15 mM Tris; from lyophilized powder; A205, path length 0.05 cm, compared to powder weighing. The method, then:
Absorbance values at 205 nm were measured on a NanoVue Plus^TM spectrophotometer (GE Healthcare, Chicago, IL, USA) using a quartz cuvette with a 0.05 cm path length.

Data set [5] has as its target T1, recombinant mouse thrombospondin-1 with a C-terminal 6His tag (mouse, UniProt P35441 19-1170).
T1 construct: thrombospondin-1 (TSP-1), mouse, recombinant; also called rmTSP-1; TSP-1; source: bought: R&D Systems (#7859-TH); not shown: 6His, C-terminal, kept
Briefly: SPR; Biacore T200; rmTSP-1 captured by its C-terminal 6His tag on anti-histidine antibody amine-coupled to a CM5 chip (2931 RU); peptides injected for 120 s at 30 uL/min, 25 °C; running buffer 10 mM HEPES, 0.15 M NaCl, 0.05% surfactant P20, 5 mM CaCl2, pH 7.4; single injections at 1 mM; single-cycle kinetics at 15.625-250 uM; contact-time experiment (30-600 s) at 500 uM TAX2; two-state reaction model, apparent KD. The following applies: both partners purified. (In general: In SPR one partner is held on a chip, and binding of the other changes the refractive index at the surface.)

T1 sequence (P35441 19-1170): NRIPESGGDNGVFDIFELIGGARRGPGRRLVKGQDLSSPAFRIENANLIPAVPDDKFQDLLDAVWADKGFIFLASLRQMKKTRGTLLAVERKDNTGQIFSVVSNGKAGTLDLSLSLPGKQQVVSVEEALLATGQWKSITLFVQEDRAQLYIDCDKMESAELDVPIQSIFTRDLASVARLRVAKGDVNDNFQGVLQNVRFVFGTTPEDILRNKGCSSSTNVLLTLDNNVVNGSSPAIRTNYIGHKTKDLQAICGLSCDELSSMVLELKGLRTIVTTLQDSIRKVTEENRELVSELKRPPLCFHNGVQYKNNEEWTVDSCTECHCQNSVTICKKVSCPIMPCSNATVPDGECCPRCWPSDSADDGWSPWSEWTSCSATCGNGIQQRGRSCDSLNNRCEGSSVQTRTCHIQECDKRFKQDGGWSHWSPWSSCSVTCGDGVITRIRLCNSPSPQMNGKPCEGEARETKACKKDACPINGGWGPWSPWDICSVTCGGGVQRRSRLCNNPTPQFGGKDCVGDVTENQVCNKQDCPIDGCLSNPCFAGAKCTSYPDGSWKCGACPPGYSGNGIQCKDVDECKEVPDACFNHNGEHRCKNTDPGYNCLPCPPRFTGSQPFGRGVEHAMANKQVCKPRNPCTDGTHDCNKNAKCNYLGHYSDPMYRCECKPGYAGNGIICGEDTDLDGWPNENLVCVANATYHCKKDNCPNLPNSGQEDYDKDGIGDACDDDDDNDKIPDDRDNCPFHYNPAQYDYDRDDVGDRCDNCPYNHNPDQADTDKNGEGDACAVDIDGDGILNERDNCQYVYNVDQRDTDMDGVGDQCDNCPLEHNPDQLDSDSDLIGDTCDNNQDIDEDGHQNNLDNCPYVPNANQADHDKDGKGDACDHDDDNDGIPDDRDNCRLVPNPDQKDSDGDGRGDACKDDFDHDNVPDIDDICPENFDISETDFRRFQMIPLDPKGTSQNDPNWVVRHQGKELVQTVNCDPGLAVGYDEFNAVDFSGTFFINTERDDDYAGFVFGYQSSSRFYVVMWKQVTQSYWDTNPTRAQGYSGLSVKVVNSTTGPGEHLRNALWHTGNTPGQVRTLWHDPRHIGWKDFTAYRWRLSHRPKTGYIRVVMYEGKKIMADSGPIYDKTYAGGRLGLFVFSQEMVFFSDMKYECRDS

Regarding `CC(C)C[C@@H]1NC(=O)[C@H](CC(C)C)NC(=O)[C@H](CCC(N)=O)NC(=O)[C@H](CO)NC(=O)[C@H](C(C)C)NC(=O)[C@H](CCC(=O)O)NC(=O)[C@@H](N)CSSC[C@@H](C(=O)O)NC(=O)[C@H](C)NC(=O)[C@H](CC(=O)O)NC(=O)CNC(=O)[C@H](CCCCN)NC1=O` [TAX2], the “stability in plasma (remaining TAX2, % of concentration at T0)” value in data set [1] is recorded as “remains stable in freshly collected plasma up to 2 hours”. Also, the “impact on platelet ability to activate” value with platelets was “Neither TAX2 monotherapy nor combined to anti-PD-1 mAb had any impact”. Moreover, the “safety (body weight, clinical signs)” value in data set [2] and in data set [3] was “appeared to be safe” throughout. Also, in data set [4], the “solubility in aqueous solvents” value is recorded as “completely soluble”.

B1: TAX2 cyclic peptide (peptide)
peptide: CEVSQLLKGDAC
modifications: disulfide 1-12 (inferred); also: acetate salt
notes: disulfide linked 12 amino-acid cyclic peptide stretch of CD47; The two end residues are replaced by cysteines to close the ring; also called TAX2 peptide; TAX2 drug candidate; source: synthetic peptide (solid-phase synthesis, Fmoc chemistry; Genecust), purity >98%
In the case of B1, in data set [5], the binding result is given as “binds”.
